Usually IC50 stands for the concentration at which inhibition is half-maximal. Lower therefore signals inhibition by little substance.

For 14 compounds, IC50 results are on record in US11236078B2, “Heterocyclic inhibitors of the sodium channel” (priority 2014, dated 2022).

Common to all, as to type: cell-based
The target of test [1] is T1, human Nav1.7 (hNav1.7) (Homo sapiens, UniProt Q15858).
T1 construct: expressed in transfected cells
The experiment in a line: hNav1.7 slow inactivation block, manual patchclamp. The conditions noted are these: HEK 293F cells stably expressing hNav1.7, slow inactivation induced in approximately 50% of channels. From the text: (§1) The generation of HEK 293F cell lines stably expressing human Nav1.7 (h Nav1.7), human Nav1.5 (hNav1.5) and rat Nav1.2 (r Nav1.2) was achieved by subcloning SCN9A, SCN5A, and SCN2A genes into inducible expression vectors followed by transfection into target cells using standard techniques. In the case of h Nav1.7, an expression vector encoding the human Navβ1 auxiliary subunit gene, SCN1B, was co-transfected with the expression vector bearing the SCN9A gene. Clones were selected using appropriate selection agents (0.3 mg/mL Zeocin and 0.8 mg/mL Geneticin) and maintained in Dulbecco's Modified Eagle medium, 10% fetal bovine serum, 1% non-essential amino acids to ˜80% confluence at 37° C. in a humidified incubator with 95% atmosphere and 5% CO2.
(§2) On the day of each experiment, cells that were grown to 80% confluence in a T75 flask were harvested for use on PatchXpress (Molecular Devices, CA, USA). Following a recovery period at 37° C. in a humidified incubator with 95% atmosphere and 5% CO2 in Dulbecco's Modified Eagle Medium, the media was replaced with an external recording solution containing (in mM): 90 TEACl, 50 NaCl, 1.8 CaCl2, 1 MgCl2, 10 HEPES, 10 glucose, adjusted to pH 7.4 with TEAOH and 300 mOsm with sucrose. The internal recording solution contained (in mM): 129 CsF, 2 MgCl2, 11 EGTA, 10 HEPES, 6 NaCl, 3 Na2ATP adjusted to pH 7.2 with CsOH and 280 mOsm with sucrose. The automated liquid handling facility of PatchXpress dispensed cells and added compound. Modulation of Nav1.7 channels by compounds was assessed by promoting the channels into the inactivated state using a conditioning voltage pulse of variable amplitude, followed by a brief hyperpolarizing pulse with a subsequent depolarized voltage step to measure the current amplitude in the presence and absence of compound.
(§3) In some cases, the potency of compounds was measured using either the Patchliner automated patch clamp platform (Nanion) or manual patch clamp techniques. Both approaches allowed the compounds to be characterized based upon the ability of a compound to modulate use- and/or state-dependence across human Nav1.7 (hNav1.7), human Nav1.5 (hNav1.5) and rat Nav1.2 (rNav1.2). The potency data is tabulated in Table 2 and is represented by six data fields. Three of the six fields represent potency data measured with the Patchliner automated platform under varying use- and state-dependent electrophysiology protocols similar to the PatchXpress protocols detailed above. For example, the second data column describes the potency of compounds in their ability to block 50% of Nav1.7 channels when the channel is repetitively activated by depolarizing voltage potentials to induce slow inactivation in approximately 50% of channels (Table 2: h Nav1.7: IC50 Slow Inactivation Block, Automated Patchclamp). The next three data fields describe the data generated from manual patchclamp electrophysiology measurements using similar methods to those employed for automated patchclamp studies.
In general terms: In patch-clamp work, channel activity is measured electrically.

In test [2] the target is T2, human Nav1.5 (hNav1.5) (Homo sapiens, UniProt Q14524).
T2 construct: expressed in transfected cells
T2 sequence (Q14524 whole entry): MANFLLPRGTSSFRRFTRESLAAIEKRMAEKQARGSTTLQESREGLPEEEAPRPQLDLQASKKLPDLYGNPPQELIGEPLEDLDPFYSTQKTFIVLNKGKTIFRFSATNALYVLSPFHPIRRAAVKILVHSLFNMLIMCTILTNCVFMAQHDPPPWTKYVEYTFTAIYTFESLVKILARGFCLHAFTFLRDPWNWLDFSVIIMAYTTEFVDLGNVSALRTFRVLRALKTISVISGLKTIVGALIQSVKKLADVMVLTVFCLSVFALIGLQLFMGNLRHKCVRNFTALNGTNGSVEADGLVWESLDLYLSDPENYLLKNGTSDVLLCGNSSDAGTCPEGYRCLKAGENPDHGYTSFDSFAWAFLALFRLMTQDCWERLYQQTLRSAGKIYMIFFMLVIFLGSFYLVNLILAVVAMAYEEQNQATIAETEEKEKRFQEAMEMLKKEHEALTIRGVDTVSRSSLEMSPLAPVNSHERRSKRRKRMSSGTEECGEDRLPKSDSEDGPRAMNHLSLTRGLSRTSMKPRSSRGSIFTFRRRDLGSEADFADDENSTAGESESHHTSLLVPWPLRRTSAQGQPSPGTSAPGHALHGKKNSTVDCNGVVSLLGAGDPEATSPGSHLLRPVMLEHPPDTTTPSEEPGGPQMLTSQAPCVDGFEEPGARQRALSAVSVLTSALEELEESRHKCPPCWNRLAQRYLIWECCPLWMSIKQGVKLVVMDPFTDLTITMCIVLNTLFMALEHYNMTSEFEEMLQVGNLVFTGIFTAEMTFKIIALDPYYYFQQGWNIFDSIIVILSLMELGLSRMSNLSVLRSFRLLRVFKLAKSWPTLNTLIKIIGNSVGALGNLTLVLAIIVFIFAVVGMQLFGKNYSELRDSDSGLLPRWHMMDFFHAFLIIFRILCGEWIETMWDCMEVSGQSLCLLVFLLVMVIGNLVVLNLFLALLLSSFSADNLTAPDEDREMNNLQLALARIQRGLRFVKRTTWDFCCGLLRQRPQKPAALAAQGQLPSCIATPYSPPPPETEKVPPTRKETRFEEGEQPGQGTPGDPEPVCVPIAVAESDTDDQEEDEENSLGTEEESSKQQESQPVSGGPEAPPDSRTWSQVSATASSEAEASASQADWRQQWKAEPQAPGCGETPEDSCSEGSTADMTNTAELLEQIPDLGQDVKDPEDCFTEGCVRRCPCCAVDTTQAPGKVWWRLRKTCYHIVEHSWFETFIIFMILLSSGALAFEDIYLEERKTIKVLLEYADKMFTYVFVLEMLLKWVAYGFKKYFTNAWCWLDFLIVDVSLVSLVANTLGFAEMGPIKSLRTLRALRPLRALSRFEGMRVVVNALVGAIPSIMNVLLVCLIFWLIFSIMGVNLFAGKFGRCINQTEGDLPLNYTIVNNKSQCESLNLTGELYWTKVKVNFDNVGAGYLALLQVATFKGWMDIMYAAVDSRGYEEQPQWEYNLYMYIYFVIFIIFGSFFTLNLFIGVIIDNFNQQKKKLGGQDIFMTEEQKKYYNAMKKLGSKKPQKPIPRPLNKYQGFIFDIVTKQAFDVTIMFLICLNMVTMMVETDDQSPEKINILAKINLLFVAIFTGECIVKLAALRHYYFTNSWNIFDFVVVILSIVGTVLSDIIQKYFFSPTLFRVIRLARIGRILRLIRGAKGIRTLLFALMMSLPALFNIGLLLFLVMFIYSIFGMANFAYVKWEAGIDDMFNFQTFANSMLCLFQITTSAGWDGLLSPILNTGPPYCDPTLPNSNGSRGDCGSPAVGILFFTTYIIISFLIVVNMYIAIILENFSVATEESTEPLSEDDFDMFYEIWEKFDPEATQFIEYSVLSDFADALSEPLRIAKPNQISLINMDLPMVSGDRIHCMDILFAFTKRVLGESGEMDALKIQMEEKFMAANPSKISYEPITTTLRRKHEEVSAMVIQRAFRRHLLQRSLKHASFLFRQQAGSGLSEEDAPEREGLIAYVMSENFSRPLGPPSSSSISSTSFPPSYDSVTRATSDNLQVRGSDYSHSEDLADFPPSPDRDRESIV
The experiment in a line: hNav1.5 slow inactivation block, manual patchclamp. The conditions noted are these: HEK 293F cells stably expressing hNav1.5.
Source text: as §1, with “CO2. […]” for “CO2.”
as §2, §3

Test [3] addresses T1, human Nav1.7 (hNav1.7). Nature of the test: hNav1.7 slow inactivation block, automated patchclamp. To be noted: HEK 293F cells stably expressing hNav1.7, slow inactivation induced in approximately 50% of channels.
Source text: as §1, §2, §3

Test [4] concerns the target T3, rat Nav1.2 (rNav1.2) (Rattus norvegicus, UniProt P04775).
T3 construct: expressed in transfected cells
Nature of the test: rNav1.2 slow inactivation block, automated patchclamp. To be noted: HEK 293F cells stably expressing rNav1.2.
Source text: as §1, §2, §3

In test [5] the target is T3, rat Nav1.2 (rNav1.2). Nature of the test: rNav1.2 slow inactivation block, manual patchclamp. The conditions noted are these: HEK 293F cells stably expressing rNav1.2.
Source text: as §1, §2, §3

For test [6], the target named is T2, human Nav1.5 (hNav1.5). The experiment in a line: hNav1.5 slow inactivation block, automated patchclamp. To be noted: HEK 293F cells stably expressing hNav1.5.
Source text: as §1
Inhibition of the TTX-resistant Nav1.5 sodium channel, a key cardiac ion channel, can have profound effects on the duration and amplitude of the cardiac action potential and can result in arrhythmias and other heart malfunctions. To assess the potential cardiac liability of compounds at an early stage in the drug discovery process, a Nav1.5 sodium channel screening assay can be performed on Molecular Device's PatchXpress™ automated electrophysiology platform. Under voltage-clamp conditions, Nav1.5 currents can be recorded from HEK cells expressing the human Nav1.5 channel in the absence and presence of increasing concentrations of the test compound to obtain an IC50 value. The external recording solution can contain (in mM): 90 TEACl, 50 NaCl, 1.8 CaCl, 1 MgCl2, 10 HEPES, 10 glucose, adjusted to pH 7.4 with TEA-OH and to 300 mOsm with sucrose (if necessary), while the internal patch pipette solution contained (in mM): 129 CsF, 2 MgCl2, 11 EGTA, 10 HEPES, 3 Na2ATP adjusted to pH 7.2 with CsOH and to 290 mOsm with sucrose (if necessary). Nav1.5 channel currents can be evoked using a cardiac action potential waveform at 1 Hz, digitized at 31.25 kHz and low-pass filtered at 12 kHz.
as §2
In some cases, the potency of compounds was measured using either the Patchliner automated patch clamp platform (Nanion) or manual patch clamp techniques. Both approaches allowed the compounds to be characterized based upon the ability of a compound to modulate use- and/or state-dependence across human Nav1.7 (hNav1.7), human Nav1.5 (hNav1.5) and rat Nav1.2 (rNav1.2). The potency data is tabulated in Table 2 and is represented by six data fields. Three of the six fields represent potency data measured with the Patchliner automated platform under varying use- and state-dependent electrophysiology protocols similar to the PatchXpress protocols detailed above. […]

Structures are written as SMILES.

T3 sequence (P04775 whole entry): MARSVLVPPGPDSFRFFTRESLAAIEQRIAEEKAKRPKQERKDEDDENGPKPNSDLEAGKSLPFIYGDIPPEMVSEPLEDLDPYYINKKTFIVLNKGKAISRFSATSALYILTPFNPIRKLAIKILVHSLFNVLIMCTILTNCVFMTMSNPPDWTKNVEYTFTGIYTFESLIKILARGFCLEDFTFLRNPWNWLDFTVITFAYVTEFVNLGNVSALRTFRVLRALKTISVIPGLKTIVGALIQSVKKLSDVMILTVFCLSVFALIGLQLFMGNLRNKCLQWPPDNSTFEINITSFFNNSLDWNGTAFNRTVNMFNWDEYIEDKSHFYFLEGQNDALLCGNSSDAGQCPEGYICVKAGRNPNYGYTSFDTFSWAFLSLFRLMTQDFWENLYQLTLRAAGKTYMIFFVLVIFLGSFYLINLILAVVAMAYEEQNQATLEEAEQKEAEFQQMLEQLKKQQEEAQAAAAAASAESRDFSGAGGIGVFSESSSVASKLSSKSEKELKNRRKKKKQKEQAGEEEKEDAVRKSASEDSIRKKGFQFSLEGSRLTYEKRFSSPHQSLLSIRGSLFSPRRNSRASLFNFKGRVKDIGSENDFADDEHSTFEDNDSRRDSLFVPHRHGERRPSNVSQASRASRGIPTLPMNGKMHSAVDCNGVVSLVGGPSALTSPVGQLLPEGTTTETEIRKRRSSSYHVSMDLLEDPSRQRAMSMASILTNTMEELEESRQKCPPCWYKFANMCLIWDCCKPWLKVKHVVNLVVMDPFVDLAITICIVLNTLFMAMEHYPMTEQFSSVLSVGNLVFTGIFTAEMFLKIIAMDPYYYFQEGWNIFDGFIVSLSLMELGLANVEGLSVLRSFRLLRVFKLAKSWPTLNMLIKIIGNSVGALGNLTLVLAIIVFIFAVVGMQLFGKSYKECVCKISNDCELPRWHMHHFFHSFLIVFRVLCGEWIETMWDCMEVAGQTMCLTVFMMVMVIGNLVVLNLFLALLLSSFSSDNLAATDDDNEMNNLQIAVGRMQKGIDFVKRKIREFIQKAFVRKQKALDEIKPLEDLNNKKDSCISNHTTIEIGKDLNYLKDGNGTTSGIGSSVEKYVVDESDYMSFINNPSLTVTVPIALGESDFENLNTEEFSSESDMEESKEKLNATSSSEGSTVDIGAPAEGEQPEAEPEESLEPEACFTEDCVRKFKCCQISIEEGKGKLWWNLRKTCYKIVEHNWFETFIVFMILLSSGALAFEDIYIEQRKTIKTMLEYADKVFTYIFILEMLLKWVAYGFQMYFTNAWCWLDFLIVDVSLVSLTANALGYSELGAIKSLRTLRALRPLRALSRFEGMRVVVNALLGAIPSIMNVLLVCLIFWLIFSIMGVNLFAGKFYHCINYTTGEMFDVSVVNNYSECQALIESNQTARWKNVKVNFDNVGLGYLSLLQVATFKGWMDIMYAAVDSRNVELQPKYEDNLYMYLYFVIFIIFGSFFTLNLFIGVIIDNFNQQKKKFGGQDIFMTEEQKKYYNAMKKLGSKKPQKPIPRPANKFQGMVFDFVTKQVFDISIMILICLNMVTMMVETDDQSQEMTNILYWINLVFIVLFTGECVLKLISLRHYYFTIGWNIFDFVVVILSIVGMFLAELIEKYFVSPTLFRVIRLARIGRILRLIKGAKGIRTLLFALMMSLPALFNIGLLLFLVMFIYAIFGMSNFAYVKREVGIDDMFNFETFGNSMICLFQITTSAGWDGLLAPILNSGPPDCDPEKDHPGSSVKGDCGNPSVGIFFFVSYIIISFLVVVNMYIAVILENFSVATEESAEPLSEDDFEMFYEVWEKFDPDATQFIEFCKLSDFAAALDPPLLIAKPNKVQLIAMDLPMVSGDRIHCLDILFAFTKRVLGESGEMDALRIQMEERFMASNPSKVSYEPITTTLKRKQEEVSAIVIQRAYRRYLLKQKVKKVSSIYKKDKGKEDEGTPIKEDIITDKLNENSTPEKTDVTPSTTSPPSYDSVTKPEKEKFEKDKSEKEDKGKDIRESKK

In the case of `O=C(NCc1cc(F)c(Oc2cc(C(F)(F)F)cc(C(F)(F)F)c2)cc1F)[C@@H]1CCCN1` [Compound 4, (2S)-N-({4-[3,5-bis(trifluoromethyl)phenoxy]-2,5-difluorophenyl}methyl)pyrrolidine-2-carboxamide], the IC50 at human Nav1.7 (hNav1.7) [1] is 217 nM; against human Nav1.5 (hNav1.5) [2], 116 nM; on human Nav1.7 (hNav1.7) [3] it was 977 nM; on rat Nav1.2 (rNav1.2) [4], 1870 nM; against rat Nav1.2 (rNav1.2) [5] it was 146 nM.

`O=S(=O)(Nc1ncns1)c1cc(F)c(Oc2cc(C(F)(F)F)cc(C(F)(F)F)c2)cc1F` [Compound 5, 4-[3,5-bis(trifluoromethyl)phenoxy]-2,5-difluoro-N-(1,2,4-thiadiazol-5-yl)benzene-1-sulfonamide]: the IC50 against human Nav1.7 (hNav1.7) [1] is 393 nM; against human Nav1.5 (hNav1.5) [2] it was 16600 nM; at human Nav1.7 (hNav1.7) [3], 7250 nM; against rat Nav1.2 (rNav1.2) [5], 19400 nM.

In the case of `O=C(NCc1cc(F)c(Oc2cc(C(F)(F)F)cc(C(F)(F)F)c2)cc1F)c1ncns1` [Compound 17, N-({4-[3,5-bis(trifluoromethyl)phenoxy]-2,5-difluorophenyl}methyl)-1,2,4-thiadiazole-5-carboxamide], the IC50 is 470 nM against human Nav1.7 (hNav1.7) [1]; roughly 2500 nM against human Nav1.5 (hNav1.5) [2]; 8430 nM at human Nav1.7 (hNav1.7) [3]; 18700 nM against rat Nav1.2 (rNav1.2) [4]; 479 nM against rat Nav1.2 (rNav1.2) [5].

With `O=S(=O)(Nc1ncns1)c1cc(F)c(Oc2cc(F)cc(Cl)c2)cc1F` [Compound 29, 4-(3-chloro-5-fluorophenoxy)-2,5-difluoro-N-(1,2,4-thiadiazol-5-yl)benzene-1-sulfonamide], the IC50 against human Nav1.7 (hNav1.7) [1] is 678 nM; at human Nav1.5 (hNav1.5) [2], roughly 7570 nM; against human Nav1.7 (hNav1.7) [3] it was 14600 nM; against rat Nav1.2 (rNav1.2) [4] it was greater than 32000 nM; against rat Nav1.2 (rNav1.2) [5] it was greater than 32000 nM.

For the compound `O=S(=O)(Nc1ncns1)c1cc(F)c(Oc2cc(C3CNC3)cc(C(F)(F)F)c2)cc1F` [Compound 31, 4-(3-(azetidin-3-yl)-5-(trifluoromethyl)phenoxy)-2,5-difluoro-N-(1,2,4-thiadiazol-5-yl)benzenesulfonamide], the IC50 against human Nav1.7 (hNav1.7) [1] was 286 nM; at human Nav1.5 (hNav1.5) [2], roughly 1460 nM; against human Nav1.7 (hNav1.7) [3], 750 nM; on rat Nav1.2 (rNav1.2) [4], roughly 1220 nM; against rat Nav1.2 (rNav1.2) [5], 387 nM.

As to `O=S(=O)(Nc1ncns1)c1cc(F)c(Oc2cc(Br)cc(C(F)(F)F)c2)cc1F` [Compound 33, 4-[3-bromo-5-(trifluoromethyl)phenoxy]-2,5-difluoro-N-(1,2,4-thiadiazol-5-yl)benzene-1-sulfonamide], the IC50 is 118 nM against human Nav1.7 (hNav1.7) [1], roughly 4010 nM against human Nav1.5 (hNav1.5) [2], roughly 10000 nM against human Nav1.7 (hNav1.7) [3] and roughly 4910 nM on rat Nav1.2 (rNav1.2) [5].

As to `COc1cc(Oc2cc(F)c(S(=O)(=O)Nc3ncns3)cc2F)cc(C(F)(F)F)c1` [Compound 34, 2,5-difluoro-4-[3-methoxy-5-(trifluoromethyl)phenoxy]-N-(1,2,4-thiadiazol-5-yl)benzene-1-sulfonamide], the IC50 at human Nav1.7 (hNav1.7) [1] is 186 nM; against human Nav1.5 (hNav1.5) [2] it was 1600 nM; against human Nav1.7 (hNav1.7) [3], roughly 6250 nM; against rat Nav1.2 (rNav1.2) [5], roughly 2740 nM.

Turning to `O=S(=O)(Nc1ncns1)c1cc(F)c(Oc2cc(Cl)cc(C(F)(F)F)c2)cc1F` [Compound 36, 4-[3-chloro-5-(trifluoromethyl)phenoxy]-2,5-difluoro-N-(1,2,4-thiadiazol-5-yl)benzene-1-sulfonamide], the IC50 at human Nav1.7 (hNav1.7) [1] is 256 nM; on human Nav1.5 (hNav1.5) [2], roughly 4960 nM; on human Nav1.7 (hNav1.7) [3] it was roughly 11900 nM; against rat Nav1.2 (rNav1.2) [5], greater than 10000 nM.

For the compound `CCCOc1cc(Oc2cc(F)c(S(=O)(=O)Nc3ncns3)cc2F)cc(C(F)(F)F)c1` [Compound 37, 2,5-difluoro-4-[3-propoxy-5-(trifluoromethyl)phenoxy]-N-(1,2,4-thiadiazol-5-yl)benzene-1-sulfonamide], the IC50 is roughly 413 nM on human Nav1.7 (hNav1.7) [1], 7210 nM at human Nav1.5 (hNav1.5) [2], roughly 17600 nM at human Nav1.7 (hNav1.7) [3] and greater than 10000 nM against rat Nav1.2 (rNav1.2) [5].

For `COc1cc(Oc2cc(F)c(S(=O)(=O)Nc3nc(C)ns3)cc2F)cc(C(F)(F)F)c1` [Compound 40, 2,5-difluoro-4-[3-methoxy-5-(trifluoromethyl)phenoxy]-N-(3-methyl-1,2,4-thiadiazol-5-yl)benzene-1-sulfonamide], the IC50 was greater than 32000 nM against human Nav1.5 (hNav1.5) [6], greater than 3200 nM at human Nav1.7 (hNav1.7) [1] and greater than 32000 nM at human Nav1.7 (hNav1.7) [3].

`COc1cc(Oc2cc(F)c(S(=O)(=O)Nc3nc(Cc4ccccc4)ns3)cc2F)cc(C(F)(F)F)c1` [Compound 41, N-(3-benzyl-1,2,4-thiadiazol-5-yl)-2,5-difluoro-4-[3-methoxy-5-(trifluoromethyl)phenoxy]benzene-1-sulfonamide]: the IC50 is greater than 32000 nM at human Nav1.5 (hNav1.5) [6], greater than 3200 nM at human Nav1.7 (hNav1.7) [1] and greater than 32000 nM on human Nav1.7 (hNav1.7) [3].

With `COc1cc(Oc2cc(F)c(S(=O)(=O)Nc3nc(CN4CCOCC4)ns3)cc2F)cc(C(F)(F)F)c1` [Compound 45, 2,5-difluoro-4-[3-methoxy-5-(trifluoromethyl)phenoxy]-N-[3-(morpholin-4-ylmethyl)-1,2,4-thiadiazol-5-yl]benzene-1-sulfonamide], the IC50 on human Nav1.5 (hNav1.5) [6] was greater than 32000 nM; against human Nav1.7 (hNav1.7) [1] it was greater than 10000 nM; against human Nav1.7 (hNav1.7) [3] it was greater than 32000 nM.

Regarding `O=C(NCc1cccc(-c2cc(C(F)(F)F)cc(C(F)(F)F)c2)c1)C1CCCC1` [Compound 56, N-({3-[3,5-bis(trifluoromethyl)phenyl]phenyl}methyl)cyclopentanecarboxamide], the IC50 amounted to 173 nM against human Nav1.7 (hNav1.7) [1]; 462 nM on human Nav1.5 (hNav1.5) [2]; 712 nM against human Nav1.7 (hNav1.7) [3]; 5850 nM on rat Nav1.2 (rNav1.2) [4]; 219 nM against rat Nav1.2 (rNav1.2) [5].

On to `N#Cc1cc(Oc2cc(C(F)(F)F)cc(C(F)(F)F)c2)ccc1S(=O)(=O)Nc1nncs1` [Example 43, 4-[3,5-bis(trifluoromethyl)phenoxy]-2-cyano-N-(1,3,4-thiadiazol-2-yl)benzene-1-sulfonamide], for which the IC50 against human Nav1.5 (hNav1.5) [6] was greater than 32000 nM; at human Nav1.7 (hNav1.7) [1], greater than 10000 nM; at human Nav1.7 (hNav1.7) [3] it was greater than 32000 nM.
